Results published in ChEMBL document CHEMBL4251741, “Amidate Prodrugs of Cyclic 9-(S)-[3-Hydroxy-2-(phosphonomethoxy)propyl]adenine with Potent Anti-Herpesvirus Activity” (ACS Med Chem Lett, 2018).

Assays:
Human betaherpesvirus 5 [1] = assay: Antiviral activity against Human cytomegalovirus AD169 infected in HEL cells assessed as inhibition of virus-induced cytopathic effect measured after 6 to 7 days post-infection; assay type: functional, organism-based; conditions: Human betaherpesvirus 5, AD169, HEL
[2] = Cytotoxicity against HEL cells assessed as morphological changes after 3 days by microscopic analysis; assay type: cell-based; conditions: human
Human betaherpesvirus 5 [3] = assay: Antiviral activity against Human cytomegalovirus Davis infected in HEL cells assessed as inhibition of virus-induced cytopathic effect measured after 6 to 7 days post-infection; assay type: functional, organism-based; conditions: Human betaherpesvirus 5, Davis
Human alphaherpesvirus 3 [4] = assay: Antiviral activity against thymidine kinase deficient Varicella-Zoster virus 07-1 assessed as inhibition of plaque formation measured after 5 days post-infection; assay type: functional, organism-based; conditions: Human alphaherpesvirus 3, 07-1, 120 h
Human alphaherpesvirus 2 = assay: Antiviral activity against Herpes simplex virus 2 G infected in HEL cells assessed as inhibition of virus-induced cytopathic effect measured after 2 to 3 days post-infection; assay type: functional, organism-based; conditions: Human alphaherpesvirus 2, strain G
Human alphaherpesvirus 3 [5] = assay: Antiviral activity against thymidine kinase expressing Varicella-Zoster virus Oka assessed as inhibition of plaque formation measured after 5 days post-infection; assay type: functional, organism-based; conditions: Human alphaherpesvirus 3, strain Oka vaccine, 120 h
Human alphaherpesvirus 1 [6] = assay: Antiviral activity against Herpes simplex virus 1 KOS infected in HEL cells assessed as inhibition of virus-induced cytopathic effect measured after 2 to 3 days post-infection; assay type: functional, organism-based; conditions: Human alphaherpesvirus 1, KOS
Human alphaherpesvirus 1 [7] = assay: Antiviral activity against ACV-resistant thymidine kinase deficient Herpes simplex virus 1 KOS infected in HEL cells assessed as inhibition of virus-induced cytopathic effect measured after 2 to 3 days post-infection; assay type: functional, organism-based; conditions: Human alphaherpesvirus 1, KOS
[8] = Cytotoxicity against HEL cells assessed as reduction in cell viability after 3 days by coulter counting method; assay type: cell-based; conditions: human
[9] = Half life in human plasma at 1 uM by HPLC-MS/MS analysis; assay type: ADME, cell-free
[10] = Half life in human liver microsomes at 0.1 uM in presence of NADPH-generating system by HPLC-MS/MS analysis; assay type: ADME, microsome
[11] = Selectivity index, ratio of CC50 for HEL cells to EC50 for Herpes simplex virus 2 G infected in HEL cells; assay type: toxicity, cell-based; conditions: human, read-out: Ratio CC50/EC50
[12] = Selectivity index, ratio of CC50 for HEL cells to EC50 for Herpes simplex virus 1 KOS infected in HEL cells; assay type: toxicity, cell-based; conditions: human, read-out: Ratio CC50/EC50
[13] = Selectivity index, ratio of CC50 for HEL cells to EC50 for ACV-resistant thymidine kinase deficient Herpes simplex virus 1 KOS infected in HEL cells; assay type: toxicity, cell-based; conditions: human, read-out: Ratio CC50/EC50
[14] = Selectivity index, ratio of CC50 for HEL cells to EC50 for thymidine kinase deficient Varicella-Zoster virus 07-1 infected in HEL cells; assay type: toxicity, cell-based; conditions: human, read-out: Ratio CC50/EC50
[15] = Selectivity index, ratio of CC50 for HEL cells to EC50 for Human cytomegalovirus AD169 infected in HEL cells; assay type: toxicity, cell-based; conditions: read-out: Ratio CC50/EC50
[16] = Selectivity index, ratio of CC50 for HEL cells to EC50 for Human cytomegalovirus Davis infected in HEL cells; assay type: toxicity, cell-based; conditions: read-out: Ratio CC50/EC50
[17] = Selectivity index, ratio of CC50 for HEL cells to EC50 for thymidine kinase expressing Varicella-Zoster virus Oka infected in HEL cells; assay type: toxicity, cell-based; conditions: human, read-out: Ratio CC50/EC50

SMILES | EC50 (Human betaherpesvirus 5 [1]) | MCC at 72 h [2] | EC50 (Human betaherpesvirus 5 [3]) | EC50 (Human alphaherpesvirus 3 [4]) | EC50 (Human alphaherpesvirus 2) | EC50 (Human alphaherpesvirus 3 [5]) | EC50 (Human alphaherpesvirus 1 [6]) | EC50 (Human alphaherpesvirus 1 [7]) | CC50 at 72 h [8] | half-life at 1 µM [9] | half-life at 0.1 µM [10] | selectivity ratio [11] | selectivity ratio [12] | selectivity ratio [13] | selectivity ratio [14] | selectivity ratio [15] | selectivity ratio [16] | selectivity ratio [17]
CCCCCOC(=O)[C@@H](NP1(=O)CO[C@@H](Cn2cnc3c(N)ncnc32)CO1)C(C)C (stereo partly drawn) | 5.9 nM | 4.4 µM | 4.8 nM | 1.5 nM | 4.2 nM | 0.57 nM | 3 nM | 1.8 nM | 7760 nM |  |  |  |  |  |  |  |  | 
Nc1ccn(C[C@@H](CO)OCP(=O)(O)O)c(=O)n1 [CIDOFOVIR] |  | > 71.6 µM |  |  | 2730 nM |  | 4180 nM | 1950 nM | > 358000 nM |  |  |  |  |  |  |  |  | 
Nc1nc2c(ncn2COC(CO)CO)c(=O)[nH]1 [GANCICLOVIR] | 7410 nM | > 39.2 µM |  |  | 51 nM |  |  | > 29500 nM | > 319000 nM |  |  |  |  |  |  |  |  | 
O=c1[nH]c(=O)n([C@H]2C[C@H](O)[C@@H](CO)O2)cc1/C=C/Br [BRIVUDINE] |  | > 30 µM |  | 22100 nM | > 30000 nM | 53 nM |  | > 30000 nM | > 300000 nM |  |  |  |  |  |  |  |  | 
CCCCCOC(=O)[C@H](CC(C)C)NP1(=O)CO[C@@H](Cn2cnc3c(N)ncnc32)CO1 (stereo partly drawn) | 5.7 nM | 4.27 µM | 3.8 nM | 0.59 nM | 1.9 nM | 0.47 nM | 1.3 nM | 1.3 nM | 1620 nM | 84 min | 16 min |  |  |  |  |  |  | 
CCCCCOC(=O)C[C@H](NP1(=O)CO[C@@H](Cn2cnc3c(N)ncnc32)CO1)C(=O)OCCCCC (stereo partly drawn) | 27 nM | 13.6 µM | 9 nM | 1.5 nM | 2 nM | 1.4 nM | 3.2 nM | 7.3 nM | 2730 nM | 22 min | 4 min |  |  |  |  |  |  | 
CCCCCOC(=O)[C@H](Cc1ccccc1)NP1(=O)CO[C@@H](Cn2cnc3c(N)ncnc32)CO1 (stereo partly drawn) | 31 nM | 9.29 µM | 17 nM | 3.2 nM | 2.3 nM | 0.52 nM | 3.5 nM | 1.5 nM | 30600 nM |  |  | > 4400 | > 4400 | > 4400 |  |  |  | 
CCCCCOC(=O)[C@@H](NP(=O)(CO[C@H](CO)Cn1cnc2c(N)ncnc21)N[C@H](C(=O)OCCCCC)C(C)C)C(C)C | 100 nM | 8.57 µM | 72 nM | 0.95 nM | 2.8 nM | 1.5 nM | 2.3 nM | 0.9 nM | 600 nM | > 120 min | 4 min |  |  |  |  |  |  | 
CCCCCOC(=O)[C@H](C)NP1(=O)CO[C@@H](Cn2cnc3c(N)ncnc32)CO1 (stereo partly drawn) | 64 nM | 23.5 µM | 65 nM | 4.3 nM | 17 nM | 2 nM | 20 nM | 10 nM | 3400 nM |  |  |  |  |  |  |  |  | 
Nc1nc2c(ncn2COCCO)c(=O)[nH]1 [ACYCLOVIR] |  | > 88.8 µM |  |  |  |  |  |  |  |  |  |  |  |  |  |  |  | 
CCCCCOC(=O)[C@@H](NP1(=O)CO[C@@H](Cn2cnc3c(N)ncnc32)CO1)[C@@H](C)CC (stereo partly drawn) | 7 nM | 9.96 µM | 6.5 nM | 0.54 nM | 2.7 nM | 0.45 nM | 2 nM | 1.9 nM | 12000 nM |  |  | > 4400 | > 4400 | > 4400 | 20000 | 1800 | 1800 | 20000
CCCCCOC(=O)CC(NP1(=O)COC(Cn2cnc3c(N)ncnc32)CO1)C(=O)OCCCCC (single isomer, unassigned) | 4390 nM | > 18.5 µM | 1620 nM | 62 nM | 110 nM | 33 nM | 210 nM | 76 nM | 11600 nM |  |  |  |  |  |  |  |  | 
CCCCCOC(=O)[C@H](CCSC)NP1(=O)CO[C@@H](Cn2cnc3c(N)ncnc32)CO1 (stereo partly drawn) | 32 nM | 4.11 µM | 29 nM | 4 nM | 11 nM | 2.6 nM | 8.9 nM | 5.7 nM | 39600 nM |  |  |  |  |  |  |  |  | 
CCCCCOC(=O)CC[C@H](NP1(=O)CO[C@@H](Cn2cnc3c(N)ncnc32)CO1)C(=O)OCCCCC (stereo partly drawn) | 14 nM | 13.2 µM | 7.6 nM | 0.95 nM | 2.5 nM | 0.58 nM | 1.2 nM | 1.2 nM | 520 nM |  |  |  |  |  |  |  |  | 
Nc1nc2c(ncn2CCC(CO)CO)c(=O)[nH]1 [PENCICLOVIR] |  | > 79 µM |  |  | 840 nM |  | 480 nM | > 79000 nM | > 395000 nM |  |  |  |  |  |  |  |  | 
